The source of these data is patent publication US6413912B2, “Azoline derivatives” (Syngenta Crop Protection, Inc., priority 1997, dated 2002).

Molecules are shown by their SMILES.

The test system of one test is Boophilus microplus. Kind of test: In vitro effect on Boophilus microplus (Example B9). The settings on record: ranking among test substances. The method, then: Example B9: In vitro effect on Boophilus microplus
Four test series each of 10 engorged female adults of Boophilus microplus are stuck to a plastic plate and covered for 1 hour with a wad of cottonwool soaked with an aqueous suspension or emulsion of the test substance. The test is carried out with concentrations of 100, 32, 10, 3.2, 1.0 and 0.32 ppm. The wad of cottonwool is then removed, and the ticks are incubated for 28 days for the eggs to be laid. The effect on Boophilus microplus is assessed according to the following 5 criteria:
1. Number of dead females (immobile with black discoloration) before egg deposition;
2. Number of ticks surviving for several days, but no eggs laid;
3. Number of cases in which eggs are laid, but nothing is hatched;
5. […] The compounds of formula (I) in this test show the effect described under point 4. […] Even at 1 ppm, a 60 to 90% suppression of the hatching rate is observed.
This test is carried out with both the BIARRA and the ULAM strain, and the results in both cases are identical.

Test [1] relates to Plutella xylostella caterpillars. Kind of test: Effect on Plutella xylostella caterpillars (Example B5). The settings on record: cabbage plants sprayed with 400 ppm, third stage caterpillars, three days later. The class given is in vivo. The method, then: Example B5: Effect on Plutella xylostella caterpillars
Young cabbage plants are sprayed with an aqueous emulsion containing 400 ppm of active ingredient. After drying of the spray deposit, the cabbage plants are inoculated with 10 third stage caterpillars of Plutella xylostella and transferred to a plastic container. Three days later they are evaluated. The percentage reduction of the population (% response) is determined by comparing the number of dead caterpillars and the extent of feeding damage on the treated plants with those on the untreated plants.

The subject of test [2] is Panonychus ulmi (resistant to organophosphates und carbaryl). Kind of test: Effect on Panonychus ulmi (Example B8). The class given is in vivo. The settings on record: apple seedlings sprayed with 400 ppm, after 14 days. The method, then: Example B8: Effect on Panonychus ulmi (resistant to organophosphates und carbaryl)
Apple seedlings are inoculated with adult females of Panonychus ulmi. After seven days, the infected plants are sprayed with an aqueous emulsion containing 400 ppm of the test compound until they are dripping wet, and cultivated in the greenhouse. After 14 days, they are evaluated. The percentage reduction of the population (% response) is determined by comparing the number of dead mites on the treated plants with those on the untreated plants.

Test [3] concerns Heliothis virescens caterpillars. Kind of test: Effect on Heliothis virescens caterpillars (Example B4). The format is in vivo. The settings on record: soya plants sprayed with 400 ppm, first stage caterpillars, six days later. The method, then:
Example B4: Effect on Heliothis virescens caterpillars
Young soya plants are sprayed with an aqueous emulsion containing 400 ppm of active ingredient. After drying of the spray deposit, the soya plants are inoculated with 10 first stage caterpillars of Heliothis virescens and transferred to a plastic container. Six days later they are evaluated. The percentage reduction of the population (% response) is determined by comparing the number of dead caterpillars and the extent of feeding damage on the treated plants with those on the untreated plants.

Test [4] deals with Heliothis virescens. Nature of the test: Ovocidal/larvicidal effect on Heliothis virescens (Example B6). The format is in vivo. The settings on record: eggs on cotton sprayed with 400 ppm, after 8 days. From the text: Example B6: Ovocidal/larvicidal effect on Heliothis virescens
Eggs of Heliothis virescens laid on cotton are sprayed with an aqueous emulsion containing 400 ppm of active ingredient. After 8 days, the percentage hatching rate of the eggs and the survival rate of the caterpillars are compared with those for untreated controls (% reduction of population)

Another test relates to Dermanyssus gallinae. Nature of the test: In vitro effect on Dermanyssus gallinae (Example B10). The settings on record: ranking among test substances. Here is the method: Example B10: In vitro effect on Dermanyssus gallinae
Ten engorged female mites of the genus Dermanyssus gallinae fixed on a plastic adhesive film are brought into contact with 50 μl of an aqueous suspension or emulsion of the test substance. The test is carried out with concentrations of 32, 10, 3.2, 1.0, 0.32 to 0.0001 ppm. After drying, the film is stuck onto a glass disc. This creates a kind of air bubble around each mite, the lower surface of which is formed by the glass disc and the upper surface by a bulging of the adhesive film. This bubble contains sufficient air for the mite to avoid suffocating. After 5 days, the effect of the test substance is evaluated with the aid of a stereomicroscope by assessing the effect on mortality, egg deposition, egg quality, hatching rate, pupation rate, and development of protonymphs according to the following 4 criteria:
1. if 9 to 10 mites are dead, this indicates a lethal effect;
3. if 2 or more mites survive and produce eggs, but no larvae hatch from these eggs and no protonymphs develop, this indicates a development-inhibiting effect;
4. if 2 or more mites survive and lay the usual number of normal eggs, from which larvae hatch and develop into protonymphs, this indicates no activity.

Test [5] concerns Tetranychus urticae. Nature of the test: Ovicidal effect on Tetranychus urticae (Example B7). The settings on record: bean plants colonized with eggs sprayed with 400 ppm, 6 days at 25° C. The format is in vivo. The method, then: Example B7: Ovicidal effect on Tetranychus urticae
Young bean plants are inoculated with females of Tetranychus urticae, which are removed again after 24 hours. The plants colonized with eggs are sprayed with an aqueous emulsion containing 400 ppm of active ingredient. The plants are incubated for 6 days at 25° C. and then evaluated. The percentage reduction of the population (% response) is determined by comparing the number of dead eggs, larvae, and adults on the treated plants with those on the untreated plants.

For test [6], the system named is Heliothis virescens. Kind of test: Ovicidal effect on Heliothis virescens (Example B1). The class given is in vivo. The settings on record: eggs immersed in 400 ppm test solution, after 6 days, vs untreated controls. Here is the method: Example B1: Ovicidal effect on Heliothis virescens
Eggs of Heliothis virescens laid on filter paper are immersed for a short time in an acetonic aqueous test solution containing 400 ppm of the active ingredient to be tested. After drying of the test solution, the eggs are incubated in Petri dishes. After 6 days, the percentage hatching rate of the eggs is compared with that for untreated controls (% reduction in hatching rate).

The test system of test [7] is Diabrotica balteata larvae. Kind of test: Effect on Diabrotica balteata larvae (Example B2). The settings on record: corn seedlings sprayed with 400 ppm, second stage larvae, six days later. The class given is in vivo. Here is the method:
Example B2: Effect on Diabrotica balteata larvae
Corn seedlings are sprayed with an aqueous emulsion containing 400 ppm of active ingredient. After drying of the spray deposit, the corn seedlings are inoculated with 10 second stage larvae of Diabrotica balteata and transferred to a plastic container. Six days later they are evaluated. The percentage reduction of the population (% response) is determined by comparing the number of dead larvae on the treated plants with those on the untreated plants.

Test [8] deals with Tetranychus urticae. Nature of the test: Effect on Tetranychus urticae (Example B3). The format is in vivo. The settings on record: bean plants, mixed population, sprayed with 400 ppm, 6 days at 25° C. The method, then: Example B3: Effect on Tetranychus urticae
Young bean plants are inoculated with a mixed population of Tetranychus urticae and, one day later, are sprayed with an aqueous emulsion containing 400 ppm of active ingredient. The plants are incubated for 6 days at 25° C. and then evaluated. The percentage reduction of the population (% response) is determined by comparing the number of dead eggs, larvae, and adults on the treated plants with those on the untreated plants. The instantly claimed compounds show good efficacy against Tetranychus urticae in this test.

For the compound `Fc1cccc(F)c1C1=NC(c2ccc(-c3ccc(C(F)(F)F)cc3)cc2)CO1` (stereo not shown) [Example H1-5, 2-(2,6-Difluorophenyl)-4-(4′-trifluoromethylbiphenyl-4-yl)-4,5-dihydro-oxazole], the “activity compared with the other test substances” value in the test on Boophilus microplus and with Dermanyssus gallinae was “most active test substance” throughout. Also, the “percentage reduction of the population (% response)” value (in test [1]; in test [2]; in test [3]; with Tetranychus urticae [5]; in [7]; in the test on Tetranychus urticae [8]) was “more than 80%” each time. In the test on Heliothis virescens [4], the “% reduction of population (hatching rate of eggs and survival rate of caterpillars)” value is reported as “more than 80%”. Further, the “% reduction in hatching rate” value in the test with Heliothis virescens [6] is listed as “more than 80%”.
